Read-outs that look alike come from different tables or passages of the source. *1 amine or outer side, *2 acyl side, *3 side chain or, on linkers, in order; H or OH if unused. Where a SMILES comes first, the peptide text is derived from it. Bridges are numbered along the chain shown (N, C = ends). [ ]: non-standard residue; d: D form. The star is where a group is joined. C20 diacid = O=C(O)CCCCCCCCCCCCCCCCCCC(=O)*; γGlu = O=C(O)[C@H](CCC(=O)[*:2])N[*:1]; Hyp = O=C(O)[C@@H]1C[C@@H](O)CN1; NMeI = CC[C@H](C)[C@H](NC)C(=O)O; Aad = N[C@@H](CCCC(=O)O)C(=O)O; Sar = CNCC(=O)O
Columns and labels:
[1] = biological target: T1, human amylin receptor 3 (hAMYR3), hCTR2 co-expressed with hRAMP3 (Homo sapiens, UniProt O60896+P30988); assay: hAMYR3 cAMP assay (AlphaScreen) in COS7 cells; assay type: cell-based
T1 construct: expressed in transfected cells
T1 sequence (P30988 25-474): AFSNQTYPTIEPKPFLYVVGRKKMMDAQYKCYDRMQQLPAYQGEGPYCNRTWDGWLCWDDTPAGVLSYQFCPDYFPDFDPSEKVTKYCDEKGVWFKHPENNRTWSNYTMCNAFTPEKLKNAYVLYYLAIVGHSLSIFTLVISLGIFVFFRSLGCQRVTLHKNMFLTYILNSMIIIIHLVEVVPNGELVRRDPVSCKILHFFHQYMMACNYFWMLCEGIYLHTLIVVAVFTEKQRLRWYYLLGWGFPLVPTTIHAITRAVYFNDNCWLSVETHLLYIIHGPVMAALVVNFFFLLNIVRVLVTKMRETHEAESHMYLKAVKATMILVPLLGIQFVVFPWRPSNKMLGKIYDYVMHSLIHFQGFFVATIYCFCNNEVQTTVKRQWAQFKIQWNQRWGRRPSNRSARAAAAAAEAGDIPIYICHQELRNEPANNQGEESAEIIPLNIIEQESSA
T1 sequence (O60896 24-148 partner): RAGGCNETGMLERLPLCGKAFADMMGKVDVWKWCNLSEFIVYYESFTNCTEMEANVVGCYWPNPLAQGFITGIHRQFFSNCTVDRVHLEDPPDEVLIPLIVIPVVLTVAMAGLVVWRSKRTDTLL
Summary of the method: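 Stable COS7 clone co-expressing hCTR2 and hRAMP3 was exposed to increasing peptide concentrations in Tyrode buffer (pH 7.4) with 100 µM IBMX and 0.1% casein for 15 min at 37 °C. Lysate cAMP was measured by AlphaScreen; EC50 came from 4-parameter logistic fitting.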

[2] = Assessment of chemical stability (RP-HPLC normalized purity); assay type: physicochemical; conditions: for Normalized purity after 7 days, 40° C., pH 4: pH 4, 0.2 mg/ml; for Normalized purity after 7 days, 40° C., pH 4 / Normalized purity after 7 days, 40° C., pH 6 / Normalized purity after 7 days, 40° C., pH 7.5 / Normalized purity after 7 days, 40° C., pH 9: Table 1; for Normalized purity after 7 days, 40° C., pH 6: pH 6, 0.2 mg/ml; for Normalized purity after 7 days, 40° C., pH 7.5: pH 7.5, 0.2 mg/ml; for Normalized purity after 7 days, 40° C., pH 9: pH 9, 0.2 mg/ml; for Normalized purity pH 4 (Table 5): pH 4, repeat of Example 6 for pairs with/without Asn-Asn at 21-22; for Normalized purity pH 6 (Table 5): pH 6, repeat of Example 6 for pairs with/without Asn-Asn at 21-22; for Normalized purity pH 7.5 (Table 5): pH 7.5, repeat of Example 6 for pairs with/without Asn-Asn at 21-22; for Normalized purity pH 9 (Table 5): pH 9, repeat of Example 6 for pairs with/without Asn-Asn at 21-22
Summary of the method: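 Peptides at 0.2 mg/ml in water adjusted to pH 4, 6, 7.5 or 9, incubated at 40° C for 7 days. Main-peak area-% by RP-HPLC (C8 ammonium formate or C18 TFA gradient, UV 220 nm), normalized to T=0 as 100.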

[3] = biological target: T2, human calcitonin receptor (hCTR2) (Homo sapiens, UniProt P30988); assay: hCTR2 cAMP assay (AlphaScreen) in COS7 cells; assay type: cell-based
T2 construct: expressed in transfected cells
T2 sequence (P30988 25-474): T1 sequence (P30988 25-474)
Summary of the method: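 Stable hCTR2 clone in RAMP-naïve COS7 cells stimulated 15 min at 37 °C with increasing peptide concentrations in Tyrode buffer pH 7.4 containing IBMX and 0.1% casein. cAMP in lysates measured by AlphaScreen; EC50 from 4-parameter logistic fit.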

[4] = cAMP induction, COS7 cells expressing hAMYR3, Table 1, read-out: hAMYR3 EC50
[5] = cAMP induction, COS7 cells expressing hCTR2, Table 1, read-out: hCTR2 EC50

Row | EC50 [1, 4] | Normalized purity after 7 days, 40° C., pH 4 [2] | Normalized purity after 7 days, 40° C., pH 6 [2] | Normalized purity after 7 days, 40° C., pH 7.5 [2] | Normalized purity after 7 days, 40° C., pH 9 [2] | EC50 [3, 5] | SMILES | EC50 [1] | Normalized purity pH 4 (Table 5) [2] | Normalized purity pH 6 (Table 5) [2] | Normalized purity pH 7.5 (Table 5) [2] | Normalized purity pH 9 (Table 5) [2] | EC50 [3]
1 | 0.22 nM | A (A = >90%) | A (A = >90%) | A (A = >90%) | A (A = >90%) | 0.1 nM | CC[C@H](C)[C@@H](C(=O)N[C@@H](CC(C)C)C(=O)N[C@@H](CO)C(=O)N[C@@H](CO)C(=O)N[C@H](C(=O)N[C@@H](CCC(=O)O)C(=O)N[C@H](C(=O)NCC(=O)N[C@@H](CO)C(=O)N[C@@H](CC(N)=O)C(=O)N[C@H](C(=O)N1CCC[C@H]1C(N)=O)[C@@H](C)O)C(C)C)[C@@H](C)O)N(C)C(=O)[C@H](C)NC(=O)CN(C)C(=O)[C@H](Cc1ccccc1)NC(=O)[C@H](CO)NC(=O)[C@H](CO)NC(=O)[C@H](CCCNC(=N)N)NC(=O)[C@H](CCC(N)=O)NC(=O)[C@H](CC(C)C)NC(=O)[C@H](Cc1ccccc1)NC(=O)[C@H](Cc1c[nH]cn1)NC(=O)[C@H](C)NC(=O)[C@H](CC(C)C)NC(=O)[C@H](CCCNC(=N)N)NC(=O)[C@H](CC(=O)O)NC(=O)[C@@H](NC(=O)[C@H](C)NC(=O)[C@@H]1CSSC[C@H](NC(=O)[C@H](CCCNC(=N)N)NC(=O)CC[C@H](NC(=O)CCCCCCCCCCCCCCCCCCC(=O)O)C(=O)O)C(=O)N[C@@H](CCC(N)=O)C(=O)N[C@@H]([C@@H](C)O)C(=O)N[C@@H](C)C(=O)N[C@@H]([C@@H](C)O)C(=O)N1)[C@@H](C)O [Compound 92, [19CD]-isoGlu-R-C( )-QTAT-C( )-ATDRLAHFLQRSSF-Gly(Me)-A-Ile(Me)-LSSTEVGSNTP-NH2] ({C20 diacid-γGlu}-RCQTATCATDRLAHFLQRSSF[Sar]A[NMeI]LSSTEVGSNTP-NH2; disulfide 2-7) |  |  |  |  |  | 
2 | 0.2 nM | A (A = >90%) | A (A = >90%) | A (A = >90%) | A (A = >90%) | 0.18 nM | CC[C@H](C)[C@@H](C(=O)N[C@@H](CC(C)C)C(=O)N[C@@H](CO)C(=O)N[C@@H](CO)C(=O)N[C@H](C(=O)N[C@@H](CCC(=O)O)C(=O)N[C@H](C(=O)NCC(=O)N[C@@H](CO)C(=O)N[C@@H](CC(N)=O)C(=O)N[C@H](C(=O)N1C[C@H](O)C[C@H]1C(N)=O)[C@@H](C)O)C(C)C)[C@@H](C)O)N(C)C(=O)[C@H](C)NC(=O)CN(C)C(=O)[C@H](Cc1ccccc1)NC(=O)[C@H](CCCNC(=N)N)NC(=O)[C@H](CCC(N)=O)NC(=O)[C@H](CC(C)C)NC(=O)[C@H](Cc1ccccc1)NC(=O)[C@H](CCCC(=O)O)NC(=O)[C@H](C)NC(=O)[C@H](CC(C)C)NC(=O)[C@H](CCCNC(=N)N)NC(=O)[C@H](CC(=O)O)NC(=O)[C@@H](NC(=O)[C@H](C)NC(=O)[C@@H]1CSSC[C@H](NC(=O)[C@H](CCCNC(=N)N)NC(=O)CC[C@H](NC(=O)CCCCCCCCCCCCCCCCCCC(=O)O)C(=O)O)C(=O)N[C@@H](CCC(N)=O)C(=O)N[C@@H]([C@@H](C)O)C(=O)N[C@@H](C)C(=O)N[C@@H]([C@@H](C)O)C(=O)N1)[C@@H](C)O [Compound 95, [19CD]-isoGlu-R-C( )-QTAT-C( )-ATDRLA-Aad-FLQRF-Gly(Me)-A-Ile(Me)-LSSTEVGSNT-Hyp-NH2] ({C20 diacid-γGlu}-RCQTATCATDRLA[Aad]FLQRF[Sar]A[NMeI]LSSTEVGSNT[Hyp]-NH2; disulfide 2-7) |  |  |  |  |  | 
3 |  |  |  |  |  |  | CC[C@H](C)[C@@H](C(=O)N[C@@H](CC(C)C)C(=O)N[C@@H](CO)C(=O)N[C@@H](CO)C(=O)N[C@H](C(=O)N[C@@H](CCC(=O)O)C(=O)N[C@H](C(=O)NCC(=O)N[C@@H](CO)C(=O)N[C@@H](CC(N)=O)C(=O)N[C@H](C(=O)N1C[C@H](O)C[C@H]1C(N)=O)[C@@H](C)O)C(C)C)[C@@H](C)O)N(C)C(=O)[C@H](C)NC(=O)CN(C)C(=O)[C@H](Cc1ccccc1)NC(=O)[C@H](CC(N)=O)NC(=O)[C@H](CC(N)=O)NC(=O)[C@H](CO)NC(=O)[C@H](CO)NC(=O)[C@H](CCCNC(=N)N)NC(=O)[C@H](CCC(N)=O)NC(=O)[C@H](CC(C)C)NC(=O)[C@H](Cc1ccccc1)NC(=O)[C@H](CCCC(=O)O)NC(=O)[C@H](C)NC(=O)[C@H](CC(C)C)NC(=O)[C@H](CCCNC(=N)N)NC(=O)[C@H](CCC(=O)O)NC(=O)[C@@H](NC(=O)[C@H](C)NC(=O)[C@@H]1CSSC[C@H](NC(=O)[C@H](CCCNC(=N)N)NC(=O)CC[C@H](NC(=O)CCCCCCCCCCCCCCCCCCC(=O)O)C(=O)O)C(=O)NCC(=O)N[C@@H]([C@@H](C)O)C(=O)N[C@@H](C)C(=O)N[C@@H]([C@@H](C)O)C(=O)N1)[C@@H](C)O [Compound 98, [19CD]-isoGlu-R-C( )-GTAT-C( )-ATERLA-Aad-FLQRSSNNF-Gly(Me)-A-Ile(Me)-LSSTEVGSNT-Hyp-NH2, reference compound] ({C20 diacid-γGlu}-RCGTATCATERLA[Aad]FLQRSSNNF[Sar]A[NMeI]LSSTEVGSNT[Hyp]-NH2; disulfide 2-7) | 0.38 nM | A (A = >90%) | A (A = >90%) | B (B = 70-90%) | B (B = 70-90%) | 7.2 nM
4 |  |  |  |  |  |  | CC[C@H](C)[C@@H](C(=O)N[C@@H](CC(C)C)C(=O)N[C@@H](CO)C(=O)N[C@@H](CO)C(=O)N[C@H](C(=O)N[C@@H](CCC(=O)O)C(=O)N[C@H](C(=O)NCC(=O)N[C@@H](CO)C(=O)N[C@@H](CC(N)=O)C(=O)N[C@H](C(=O)N1C[C@H](O)C[C@H]1C(N)=O)[C@@H](C)O)C(C)C)[C@@H](C)O)N(C)C(=O)[C@H](C)NC(=O)CN(C)C(=O)[C@H](Cc1ccccc1)NC(=O)[C@H](CC(N)=O)NC(=O)[C@H](CC(N)=O)NC(=O)[C@H](CO)NC(=O)[C@H](CO)NC(=O)[C@H](CCCNC(=N)N)NC(=O)[C@H](CCC(N)=O)NC(=O)[C@H](CC(C)C)NC(=O)[C@H](Cc1ccccc1)NC(=O)[C@H](Cc1c[nH]cn1)NC(=O)[C@H](C)NC(=O)[C@H](CC(C)C)NC(=O)[C@H](CCCNC(=N)N)NC(=O)[C@H](CCC(=O)O)NC(=O)[C@@H](NC(=O)[C@H](C)NC(=O)[C@@H]1CSSC[C@H](NC(=O)[C@H](CCCNC(=N)N)NC(=O)CC[C@H](NC(=O)CCCCCCCCCCCCCCCCCCC(=O)O)C(=O)O)C(=O)N[C@@H](CCC(N)=O)C(=O)N[C@@H]([C@@H](C)O)C(=O)N[C@@H](C)C(=O)N[C@@H]([C@@H](C)O)C(=O)N1)[C@@H](C)O [Compound 99, [19CD]-isoGlu-R-C( )-QTAT-C( )-ATERLAHFLQRSSNNF-Gly(Me)-A-Ile(Me)-LSSTEVGSNT-Hyp-NH2, reference compound] ({C20 diacid-γGlu}-RCQTATCATERLAHFLQRSSNNF[Sar]A[NMeI]LSSTEVGSNT[Hyp]-NH2; disulfide 2-7) | 0.59 nM | A (A = >90%) | A (A = >90%) | B (B = 70-90%) | B (B = 70-90%) | 3.8 nM

— patent publication US20210115104A1, “AMYLIN ANALOGUES” (Zealand Pharma A/S, priority 2015, published 2021)
